In patent US20220401458A1 (Glia, LLC, priority 2019, published 2022):

Columns and labels:
Parkinson's disease = assay: Case study Patient: Parkinson's disease symptoms during topical testosterone gel to forehead; assay type: in vivo, human
Description: They were diagnosed with Parkinson's in May 2016, confirmed October 2016 and April 2017 by independent DAT scans. Symptoms were bradykinesia of the legs, rigidity/stiffness, postural instability, specifically trouble with balance and falling as well as trouble with moving and walking, with peripheral neuropathy on both feet. Patient experienced no particular tremors. They also experienced chronic and increasing fatigue and loss of energy, as well as chronic head colds that would last about one week at a time every 6 weeks.
(§1) In February 2019, symptoms continued and progressed. Patient was prescribed carbidopa/levodopa 25 mg/100 mg TID.

[1] = system: corneal mechanical thresholds; assay: Corneal mechanical threshold in rat (surrogate for effect on dry eye); assay type: in vivo; settings: p<0.01 (FIG. 5)
Procedure: In the same animal model as used in Example 1, the corneal mechanical thresholds were determined as a surrogate for effect on dry eye.

luteinizing hormone (LH) = assay: Serum luteinizing hormone levels by competitive ELISA after topical administration to rat forehead; assay type: in vivo, male Sprague-Dawley rats; settings: about 0.2% testosterone gel on forehead twice daily for 14 days; not statistically significant
Procedure: (§2) Hormone Assessment: Blood was collected, stored at 4° C. overnight and spun down to collect serum. Serum was analyzed for total testosterone levels (T) and luteinizing hormone (LH) levels by competitive ELISA using commercially available kits (Enzo Life Sciences). […] All samples were run in duplicate. For assessing LH, serum was diluted 1:2 and, due to high variance, samples were run in quadruplet. Obvious outlying values were omitted and data were averaged for the final analysis.

[2] = Serum total testosterone levels by competitive ELISA after twice daily topical administration to rat forehead; assay type: in vivo, male Sprague-Dawley rats; settings: about 0.2% testosterone gel on shaved forehead twice daily for 14 days; serum 30 min after final application; one-way t-test p 0.08 (FIG. 1)
Procedure: as §2

[3] = Case study Patient: blood testosterone levels during topical testosterone gel to forehead; assay type: in vivo, human; settings: for concentration at 2 months / concentration at 10 months: human, blood, topical, 0.14 mg
Procedure: as §1
Patient was maintained at these levels.

In the case of `C[C@]12CC[C@H]3[C@@H](CCC4=CC(=O)CC[C@@]43C)[C@@H]1CC[C@@H]2O` [testosterone, 17β-hydroxyandrost-4-en-3-one], the “increase of repetitions in exercises” value (Parkinson's disease; 20-month period on gel, reported by physical trainer) was “about 25%”, the cognitive decline (Parkinson's disease; April 2020) was “no cognitive decline” and the “sex drive compared to before start of testosterone treatment” value (Parkinson's disease; April 2020) was “increased sex drive”. For the same compound, the “strength in knees and rest of body” value (Parkinson's disease; April 2020) was “increased strength”, the “energy / ability to exercise” value (Parkinson's disease; after starting the testosterone gel 0.14 mg once daily to forehead) was “more energetic and was able to exercise” and the “progression of Parkinson's disease” value (Parkinson's disease; neurologist's conclusion June 2020, comparison with peer group) was “had not progressed”. The “corneal mechanical threshold pressure compared with control” value ([1]; 60 minutes after administration to shaved head) was “significantly higher”, the “corneal mechanical threshold pressure compared with control” value ([1]; 120 minutes after administration to shaved head) was “significantly higher” and the “increase in serum luteinizing hormone levels” value (luteinizing hormone (LH)) was 9%. The “increase in testosterone levels in the treated rats compared to controls” value [2] was 42%, the bioavailable testosterone ([3]; 0.2% w/w gel once daily to forehead, 10 months) was 2.0 ng/dL and the concentration at 2 months ([3]; Free testosterone, 0.2% w/w gel once daily to forehead) was 0.08 pg/mL. The concentration at 10 months ([3]; Free testosterone, 0.2% w/w gel once daily to forehead, 10 months) was 1 pg/mL, the concentration at 2 months ([3]; Total testosterone, 0.14 mg in 0.07 g gel (0.2% w/w) once daily to forehead) was 140 pg/mL and the concentration at 10 months ([3]; Total testosterone, 0.2% w/w gel once daily to forehead, 10 months) was 210 pg/mL.
